The values that follow come from PubChem BioAssay AID1159557 (GlaxoSmithKline (GSK), 2015).

pIC50: −log10 of the molar value. Activity calls are given as the source filed them. How the calls were made is not given here. Bounds are passed on as bounds.

In this assay the test system is Trypanosoma brucei growth inhibition. Briefly: T. brucei growth inhibition (AID 1159557).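 Further: parasites exposed to compound for 48 h before the resazurin readout.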

As for `O=C(Nc1ccc(Br)c(Cl)c1)Nc1ccc2c(c1)OCO2`, the pIC50 was 5.10.

Take `CC(=Cc1ccccc1)CN1CCC(=O)N(Cc2cccnc2)CC1`: the IC50 was > 40000 nM (inactive).

Turning to `Cc1cc(N2CCc3ccccc3C2)nc(Nc2ccc(S(=O)(=O)N3CCOCC3)cc2)n1`, the pIC50 was 4.49.

Turning to `Cc1[nH]c2ccccc2c(=O)c1Cc1c(C)[nH]c2ccccc2c1=O`, the IC50 is > 40000 nM (inactive).

As for `CC1(C)CCC(=Cc2ccc(Cl)cc2)CC1(O)Cn1ccnc1` (stereo not given), the pIC50 is 5.00.

As for `COc1ccc(S(=O)(=O)NCc2ccc(-c3ccc(CN(C)CCO)cc3)cc2)cc1`, the negative logarithm of the IC50 (pIC50) was 5.49.

On to `O=C(NCCCn1cnc2ccccc21)c1ccc(NC(=O)c2ccco2)cc1`, for which the pIC50 is 6.70.

On to `Cn1nc(C(=O)N2CCc3ccccc32)c2c1CCS(=O)(=O)C2`, for which the pIC50 is 5.40.

On to `O=C(CN(Cc1ccccn1)Cc1ccccn1)NCc1ccc(-c2csnn2)cc1`, for which the pIC50 was 4.89.

With `Cc1cc(C#N)c([N+](=O)[O-])cc1Br`, the pIC50 was 6.10.

Take `Cn1nc([N+](=O)[O-])nc1N1CCCCC1`: the IC50 was > 40000 nM (inactive).

As for `CCCn1c(NC(=O)Cc2ccc(Cl)cc2)nc2ccccc21`, the pIC50 was 5.70.

For the compound `Cc1cc(N(C)C)nc2ccc(Cc3cnc(N)nc3N)cc12`, the pIC50 was 5.30.

Consider `Cc1cc(-c2cccc3ccccc23)nc2nc(N)nc(N)c12`, for which the pIC50 was 4.49.

On to `COc1cccc(CN(C)Cc2nc(N)c3c(C)c(C)sc3n2)c1`, for which the negative logarithm of the IC50 (pIC50) is 5.30.

`O=C(Nc1nc2cc(Cl)ccc2o1)c1cccc(Cl)c1`: the pIC50 is 6.10.

For the compound `CCCCNc1nccc(-c2c(-c3ccc(F)cc3)nn3c(N4CCOCC4)cccc23)n1`, the pIC50 was 5.00.

Take `O=S(=O)(NCC(c1cccnc1)N1CCN(c2ccccc2F)CC1)c1ccc(F)cc1` (stereo not given): the pIC50 is 4.60.

For `CS(=O)(=O)c1ccc(Nc2nccc(-c3cnn4ncccc34)n2)cc1`, the pIC50 was 6.80.

On to `O=[N+]([O-])c1ccc(-c2nnn(-c3cccnc3)n2)o1`, for which the pIC50 is 6.49.

As for `Cc1ccc(S(=O)(=O)Nc2ccc(CN3CCN(C(=O)c4cccc(C#N)c4)CC3)cc2)cc1`, the pIC50 was 6.80.

Take `Nc1nc(-c2ccccc2)cc(-c2nc3ncccc3[nH]2)n1`: the pIC50 is 5.00.

Consider `O=C(NCC1CCCCC1)c1cc(=O)c2ccccc2o1`, for which the negative-log IC50 (pIC50) is 6.00.

`O=C(CN(Cc1ccccn1)Cc1ccccn1)NC1Cc2ccccc2C1`: the pIC50 is 4.70.

On to `CC(C)CC(=O)NC(c1cccs1)c1ccc2cccnc2c1O` (stereo not given), for which the pIC50 was 6.20.

Take `CC(=O)NC1(c2ccccc2)CCN(CC(=O)Nc2ccccc2-c2ccccc2)CC1`: the pIC50 is 6.20.

For the compound `CCOc1ccc(NC(=O)c2ccc(NC(=O)NC3CCCCC3)cc2)cc1`, the pIC50 is 6.70.

Regarding `NS(=O)(=O)c1ccc(Nc2ncc3cccc(OC4CCNCC4)c3n2)cc1`, the pIC50 is 6.70.

In the case of `Cc1cccnc1NC(=O)c1cccc(OCc2c(C)noc2C)c1`, the pIC50 was 6.40.

`CC(C)(C)CC(=O)NCc1noc(COc2ccccc2)n1`: the pIC50 was 6.20.

On to `CCc1cccc(CC)c1-n1c(SCC(=O)NC(=O)NCc2ccco2)nnc1-c1cccnc1`, for which the pIC50 was 6.40.

Turning to `N#CN1CC[C@@H](NC(=O)Nc2ccccc2Oc2ccccc2)C1`, the pIC50 is 6.00.

In the case of `O=C(NCCc1csc(-c2cccc(F)c2)n1)c1ccco1`, the pIC50 was 6.30.

Regarding `COc1cccc(Nc2cc(C)nc(-c3ccccn3)n2)c1`, the IC50 was > 40000 nM (inactive).

As to `Nc1ncnc2c1ncn2[C@@H]1O[C@H](CO)C[C@H]1O`, the pIC50 is 7.89.

Regarding `CCNc1cc(-c2ccccn2)nc(Nc2ccccc2)n1`, the pIC50 is 4.60.

For `CCOc1cc(NCCCN2CCN(C)CC2)c2ncccc2c1`, the pIC50 is 4.89.

Turning to `CS(=O)(=O)NC1CCC(Oc2cc3cnccc3cc2-c2ccsc2)CC1` (stereo not given), the negative logarithm of the IC50 (pIC50) is 4.80.

Consider `CN(C)c1ccc(-c2cc3nccnc3c(OC[C@H]3CCCNC3)n2)cn1`, for which the pIC50 was 5.70.

Consider `CNc1nc(C)nc(N2CCc3cc(C(=O)NCc4ccc(-c5nccn5C)cc4Cl)ccc32)n1`, for which the pIC50 was 4.89.
